Article PMC3527569, “Anti-Inflammatory and Vasoprotective Activity of a Retroviral-Derived Peptide, Homologous to Human Endogenous Retroviruses: Endothelial Cell Effects” (PLoS ONE, 2012)
Where a SMILES comes first, the peptide text is derived from it. Bridges are numbered along the chain shown (N, C = ends). Roman numbers before positions name the chains, in order.

Legend:
[1] = system: PAF; assay: Zymosan-induced PAF release by adherent human PBMC; format: cell-based; details: 1 h peptide then Zymosan 90 min, IC50 estimated from graph
Experimental: (§1) Platelet Activating Factor (PAF) and Leukotriene B4 (LTB4) Assays: PBMC were prepared as described above and adjusted to 3.3 x 10^6 cells/ml in RPMI-1640 medium containing 5 mg/ml HSA (Sigma, St. Louis, MO). To each well of a 48-well tissue culture plate was added 0.3 ml of cell suspension. The plate was incubated for 2 h at 37°C and 5% CO2 to allow cells to adhere. The wells were then washed 3X with HHBSS (Hank’s Balanced Salt Solution with 5 mg/ml HSA) at room temperature (RT). One-hundred seventy-five µL of HHBSS or test material in HHBSS was then added to each well and the plates incubated for 1 h at 37°C and 5% CO2. Samples were set up in quadruplicate. To each of duplicate wells for each sample was then added 175 µL of HHBSS or HHBSS containing 600 µg/ml of Zymosan (Sigma, St. Louis, MO). The plates were then incubated for 90 min at 37°C and 5% CO2. The plates were centrifuged and supernatants removed for quantitation of PAF or LTB4 according to the kit manufacturer’s (Amersham Pharmacia; Piscataway, NJ) instructions. The released PAF or LTB4 concentration was determined from a standard curve using standards provided with each kit.

[2] = system: Adhesion; assay: Monocyte adhesion to endothelial cells (HUVEC); format: cell-based, human; details: calcein-labelled PBMC on HUVEC, TNF-α stimulated; peptide 10 nM-100 µM
Experimental: Monocyte Adhesion to Endothelial Cells: To each well of a 96-well tissue culture plate was added 100 µL of HUVEC at 2 x 10^4 cells/ml. The plates were then incubated 48 h at 37°C and 5% CO2. PBMC, prepared as above, were washed once in serum-free RPMI-1640 medium. Calcein-AM (Sigma; St. Louis, MO) was added to a final concentration of 10 µg/ml, the cells incubated 30 min at 37°C, and then washed once with serum-free RPMI-1640. The cells were then washed an additional time with Complete Medium and resuspended to a concentration of 3 x 10^6/ml in Complete Medium. For each concentration of compound to be tested, 200 µL of labeled PBMC was incubated with 200 µL of test compound (2X desired final concentration) in polypropylene tubes. Similarly, for each concentration of compound to be tested, 50 µL of medium was removed from a well of the plated HUVEC and 50 µL of medium containing the test compound (2X desired final concentration) was added. Both tubes and plates were incubated 1 h at 37°C in 5% CO2. All peptides were tested at log10 concentrations of 10 nM to 100 µM. […] The plate was then read on a fluorescent spectrophotometer with filter settings of λ = 485exc/530emi. […] The plate was blotted to remove any media and read again on the fluorescent spectrophotometer. Percent of Maximum Adhesion (% Max. Adh.) was calculated as: […]

[3] = system: LTB4; assay: Zymosan-induced LTB4 release by adherent human PBMC; format: cell-based; details: 1 h peptide then Zymosan 90 min, IC50 estimated from graph
Experimental: as §1

[4] = system: GM-CSF; assay: LPS-induced GM-CSF release by human PBMC (sandwich ELISA); format: cell-based; details: 18-24 h, peptide 10 nM-100 µM in triplicate, IC50 estimated from graph
Experimental: Cytokine Assays: One-hundred µL of PBMC (2 x 10^6/ml in Complete Medium) were added to each well of a flat-bottom, 96-well tissue culture plate. To each well was then added 50 µL of media or peptide (4X desired final concentration; in Complete Medium) and 50 µL of lipopolysaccharide (LPS; S. typhosa; Sigma, St. Louis, MO; 400 ng/ml Complete Medium). Each peptide was tested in triplicate at 5 log10 concentrations ranging from 100 µM to 10 nM. Plates were incubate 18-24 h at 37°C in 5% humidified CO2. Plates were then centrifuged and 100 µL of supernatant removed from each well and stored frozen at -80°C until assayed. Cytokines (TNF-α, IL-1β, IL-6, GM-CSF) were measured by sandwich ELISA assays (R & D Systems; Minneapolis, MN) using the manufacturer’s instructions. The released cytokine concentration was determined from a standard curve using recombinant cytokine provided with each kit.

[5] = system: human blood monocytes; assay: [125I]-MN20054 binding/uptake by human blood monocytes; details: 100-fold molar excess unlabeled peptide, 60 min, 37°C, PBS 0.5% BSA pH 7.5, triplicate, gamma counting (Figure 6A)
Experimental: (Perkin Elmer; Boston, MA) using the chloramine-T method. Human blood monocytes (purified by adherence to plastic; 10^6/0.2 ml in PBS with 0.5% BSA, pH 7.5 in 12×75 mm polypropylene tubes) were incubated in triplicate at 37°C for 60 min with 40 pmol [^125I]-MN20054 (∼20 Ci/mmol) in the presence or absence of a 100-fold molar excess of unlabeled peptide. Tubes were shaken gently during the incubation. The contents of each tube were layered onto a layer of 0.8 ml of 10% sucrose in polypropylene Eppendorf tubes and the tubes centrifuged for 5 min at 8,000×g to separate cell-associated from free ligand. The tubes were then snap-frozen in a dry-ice/acetone bath and the bottom of the tube containing the cell pellet cut off and then counted in a gamma-scintillation spectrophotometer. In studies to determine how much of the uptake was due to endocytosis, binding/uptake was performed as described above with the exception that half of the monocytes were pretreated for 30 min at 37°C with cytochalasin B (10 µg/ml; Sigma; St. Louis, MO).

[6] = system: nitrate in HUVEC supernatants; assay: NO release (nitrate as nitrite) from HUVEC; format: cell-based, human; details: 50 µM peptide
Experimental: HUVEC were grown to 80–90% confluence in 12-well tissue culture plates using defined media provided by Cambrex and supplemented with 10% FBS. Triplicate wells were incubated with either media alone or media containing 50 µM of the indicated peptide. Supernatant samples were removed from each well at 6 h and 24 h post peptide addition and assayed for NO release as measured by the presence of nitrate (converted to nitrite) using a kit supplied by Oxford Biomedical Research (Rochester Hill, MI) according to the manufacturer's instructions.

| Compound | IC50 [1] [µM] | IC50 [2] [µM] | IC50 [3] [µM] | IC50 [4] [µM] | inhibition of binding or uptake of [125I]-MN20054 by monocytes [5] [%] | nitrate release (as measured by nitrite assay) from HUVEC ([6]; 6 h or ON) | nitrate release, percent of MN10021 ([6]; 6 h and ON incubations) [%] |
| --- | --- | --- | --- | --- | --- | --- | --- |
| CC(C)C[C@H](NC(=O)CNC(=O)CNC(=O)[C@H](CCC(=O)O)NC(=O)[C@H](CCCCN)NC(=O)[C@H](CC(C)C)NC(=O)[C@H](Cc1ccccc1)NC(=O)[C@H](CC(C)C)NC(=O)[C@H](CC(C)C)NC(=O)[C@H](CC(=O)O)NC(=O)[C@H](CC(C)C)NC(=O)CNC(=O)[C@H](CCCNC(=N)N)NC(=O)[C@H](CCCNC(=N)N)NC(=O)[C@H](CC(N)=O)NC(=O)[C@H](CCC(N)=O)NC(=O)[C@@H](N)CC(C)C)C(=O)N[C@@H](CSSC[C@H](NC(=O)[C@H](CC(C)C)NC(=O)CNC(=O)CNC(=O)[C@H](CCC(=O)O)NC(=O)[C@H](CCCCN)NC(=O)[C@H](CC(C)C)NC(=O)[C@H](Cc1ccccc1)NC(=O)[C@H](CC(C)C)NC(=O)[C@H](CC(C)C)NC(=O)[C@H](CC(=O)O)NC(=O)[C@H](CC(C)C)NC(=O)CNC(=O)[C@H](CCCNC(=N)N)NC(=O)[C@H](CCCNC(=N)N)NC(=O)[C@H](CC(N)=O)NC(=O)[C@H](CCC(N)=O)NC(=O)[C@@H](N)CC(C)C)C(=O)O)C(=O)O [MN10021] (I: H-LQNRRGLDLLFLKEGGLC-OH / II: H-LQNRRGLDLLFLKEGGLC-OH; disulfide I:18-II:18) | 12.5 | > 100 | 6.2 | 8 | ~65 | induced nitrate release |  |
| H-LGGEKLFLLDGRNQLC-OH (disulfide (positions not given here)) [MN20050] | > 100 | > 100 | > 100 | > 100 | < 10 |  | ≤ 25 |
